Source: the supplement of paper PMC11451515

Tests used:
Settings in all cases: 48 h
SEM cells [1] = assay: AUC of viability dose-response curve (% viability x log10 dose units); higher = less sensitive
How it was run: (§1)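 In 1536-well plates, leukemia cells adapted to each medium (500 or 1000 cells/well) were exposed for 48 h at 37°C to library compounds in DMSO across 11 threefold doses, 47 μM down to 0.79 nM. Viability was read by CellTiter-Glo One luminescence and normalised per plate to DMSO and cell-free wells. A four-parameter log-logistic fit over log10 doses was integrated by trapezoidal rule. This yielded the area under the curve, with over-full-viability curves scaled and quality-control failures dropped.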

NOMO1 [2] = assay: as above
How it was run: as §1

P12-Ichikawa [3] = assay: as above
How it was run: as §1

SEM cells [4] = assay: cell viability relative to DMSO control; higher = less cytotoxic
How it was run: (§2)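 Leukemia cells (NOMO1 or SEM, 500 cells/well; P12-Ichikawa, 1000 cells/well) were seeded in 5 μl in 1536-well plates after at least four passages of adaptation to each medium. They received library compounds in DMSO by pin dosing, 11 threefold points from 47 μM to 0.79 nM. Luminescence with CellTiter-Glo One was read after 48 h at 37°C. Viability is stated per plate relative to DMSO wells, with cell-free wells as background.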

NOMO1 [5] = assay: as above
How it was run: as §2

P12-Ichikawa [6] = assay: as above
How it was run: as §2

CC(NCc1ccc2c(c1)[nH]/c(=N\C(=O)c1ccc(-c3cn[nH]c3)s1)n2CC(C)(C)O)C(C)(C)C (stereo unspecified)
AUC of viability dose-response curve
Settings | NOMO1 [2] | P12-Ichikawa [3] | SEM cells [1]
HPLM + 10% dialyzed FBS | 321 | 350 | 177
RPMI 5 mM glucose + 10% FBS | 358 | 349 | 194
RPMI 5 mM glucose + 10% dialyzed FBS | 347 | 345 | 170

cell viability [%]
Settings | NOMO1 [5] | P12-Ichikawa [6] | SEM cells [4]
HPLM + 10% dialyzed FBS, 0.000781 µM | 110 | 117 | 112
HPLM + 10% dialyzed FBS, 0.00234 µM | 109 | 112 | 89.6
HPLM + 10% dialyzed FBS, 0.00702 µM | 113 | 108 | 62.7
HPLM + 10% dialyzed FBS, 0.0211 µM | 112 | 115 | 52.4
HPLM + 10% dialyzed FBS, 0.0632 µM | 106 | 117 | 47.7
HPLM + 10% dialyzed FBS, 0.19 µM | 103 | 111 | 41
HPLM + 10% dialyzed FBS, 0.569 µM | 74.4 | 99.1 | 24.9
HPLM + 10% dialyzed FBS, 1.71 µM | 54.1 | 65 | 10.9
HPLM + 10% dialyzed FBS, 5.12 µM | 9.83 | 29.5 | 8.32
HPLM + 10% dialyzed FBS, 15.4 µM | 5.43 | 25.9 | 2.2
HPLM + 10% dialyzed FBS, 46.1 µM | 4.17 | 2.69 | 2.08
RPMI 5 mM glucose + 10% FBS, 0.000781 µM | 110 | 109 | 96.7
RPMI 5 mM glucose + 10% FBS, 0.00234 µM | 104 | 118 | 112
RPMI 5 mM glucose + 10% FBS, 0.00702 µM | 109 | 121 | 76.3
RPMI 5 mM glucose + 10% FBS, 0.0211 µM | 98.7 | 123 | 58.5
RPMI 5 mM glucose + 10% FBS, 0.0632 µM | 102 | 124 | 48
RPMI 5 mM glucose + 10% FBS, 0.19 µM | 103 | 121 | 36.5
RPMI 5 mM glucose + 10% FBS, 0.569 µM | 98.7 | 102 | 31.3
RPMI 5 mM glucose + 10% FBS, 1.71 µM | 87.2 | 72.9 | 14.9
RPMI 5 mM glucose + 10% FBS, 5.12 µM | 10.8 | 29.8 | 4.21
RPMI 5 mM glucose + 10% FBS, 15.4 µM | 5.4 | 14.7 | 1.66
RPMI 5 mM glucose + 10% FBS, 46.1 µM | 3.08 | 2.33 | 1.98
RPMI 5 mM glucose + 10% dialyzed FBS, 0.000781 µM | 116 | 134 | 122
RPMI 5 mM glucose + 10% dialyzed FBS, 0.00234 µM | 100 | 124 | 85.4
RPMI 5 mM glucose + 10% dialyzed FBS, 0.00702 µM | 110 | 120 | 79.8
RPMI 5 mM glucose + 10% dialyzed FBS, 0.0211 µM | 99.5 | 130 | 42.4
RPMI 5 mM glucose + 10% dialyzed FBS, 0.0632 µM | 101 | 119 | 45.7
RPMI 5 mM glucose + 10% dialyzed FBS, 0.19 µM | 101 | 122 | 41.5
RPMI 5 mM glucose + 10% dialyzed FBS, 0.569 µM | 92.9 | 104 | 27.2
RPMI 5 mM glucose + 10% dialyzed FBS, 1.71 µM | 69.7 | 71 | 16.2
RPMI 5 mM glucose + 10% dialyzed FBS, 5.12 µM | 8.51 | 31.7 | 6.16
RPMI 5 mM glucose + 10% dialyzed FBS, 15.4 µM | 4.24 | 24.9 | 1.94
RPMI 5 mM glucose + 10% dialyzed FBS, 46.1 µM | 2.97 | 3.31 | 1.53

COC1=CC2=C(C=C1OC)[C@H]3[C@@H](CO2)OC4=C(C=CC5=C4\C=C/C(C)(C)O5)C3=O
AUC of viability dose-response curve
Settings | NOMO1 [2] | P12-Ichikawa [3] | SEM cells [1]
HPLM + 10% dialyzed FBS | 402 | 399 | 409
RPMI 5 mM glucose + 10% FBS | 404 | 327 | 357
RPMI 5 mM glucose + 10% dialyzed FBS | 406 | 341 | 326

cell viability [%]
Settings | NOMO1 [5] | P12-Ichikawa [6] | SEM cells [4]
HPLM + 10% dialyzed FBS, 0.000781 µM | 82.8 | 95.5 | 82.5
HPLM + 10% dialyzed FBS, 0.00234 µM | 89.3 | 103 | 97.1
HPLM + 10% dialyzed FBS, 0.00702 µM | 106 | 96.9 | 101
HPLM + 10% dialyzed FBS, 0.0211 µM | 96.8 | 99.9 | 96.8
HPLM + 10% dialyzed FBS, 0.0632 µM | 95 | 93.5 | 85.3
HPLM + 10% dialyzed FBS, 0.19 µM | 98.5 | 102 | 89
HPLM + 10% dialyzed FBS, 0.569 µM | 94 | 93.5 | 92.7
HPLM + 10% dialyzed FBS, 1.71 µM | 82.8 | 69.7 | 91
HPLM + 10% dialyzed FBS, 5.12 µM | 70.4 | 67.7 | 78.9
HPLM + 10% dialyzed FBS, 15.4 µM | 69.3 | 65.6 | 85.2
HPLM + 10% dialyzed FBS, 46.1 µM | 10.3 | 2.52 | 3.39
RPMI 5 mM glucose + 10% FBS, 0.000781 µM | 88.8 | 89 | 95.1
RPMI 5 mM glucose + 10% FBS, 0.00234 µM | 95.3 | 94.9 | 99.1
RPMI 5 mM glucose + 10% FBS, 0.00702 µM | 93.3 | 98.9 | 107
RPMI 5 mM glucose + 10% FBS, 0.0211 µM | 99.2 | 95.9 | 95.6
RPMI 5 mM glucose + 10% FBS, 0.0632 µM | 89 | 69.6 | 78.5
RPMI 5 mM glucose + 10% FBS, 0.19 µM | 93.6 | 80 | 112
RPMI 5 mM glucose + 10% FBS, 0.569 µM | 90.8 | 62.2 | 85.4
RPMI 5 mM glucose + 10% FBS, 1.71 µM | 82.8 | 52.1 | 71
RPMI 5 mM glucose + 10% FBS, 5.12 µM | 78.7 | 48.3 | 24.4
RPMI 5 mM glucose + 10% FBS, 15.4 µM | 76.5 | 46.5 | 31
RPMI 5 mM glucose + 10% FBS, 46.1 µM | 9.87 | 3.34 | 3.59
RPMI 5 mM glucose + 10% dialyzed FBS, 0.000781 µM | 86.3 | 84.1 | 87.7
RPMI 5 mM glucose + 10% dialyzed FBS, 0.00234 µM | 88.1 | 89.1 | 85.1
RPMI 5 mM glucose + 10% dialyzed FBS, 0.00702 µM | 91 | 93.8 | 92.4
RPMI 5 mM glucose + 10% dialyzed FBS, 0.0211 µM | 95.2 | 88.9 | 88.9
RPMI 5 mM glucose + 10% dialyzed FBS, 0.0632 µM | 79.9 | 74.4 | 64.6
RPMI 5 mM glucose + 10% dialyzed FBS, 0.19 µM | 98.1 | 79.1 | 79.2
RPMI 5 mM glucose + 10% dialyzed FBS, 0.569 µM | 94.3 | 69.3 | 75.4
RPMI 5 mM glucose + 10% dialyzed FBS, 1.71 µM | 88.5 | 62.1 | 63
RPMI 5 mM glucose + 10% dialyzed FBS, 5.12 µM | 81.9 | 58.5 | 44.8
RPMI 5 mM glucose + 10% dialyzed FBS, 15.4 µM | 81.4 | 60.9 | 46.2
RPMI 5 mM glucose + 10% dialyzed FBS, 46.1 µM | 21.4 | 3.49 | 3.18
